The assay concerns skin of an inner lateral part of the upper arm of testees exposed to summer sunlight. Kind of assay: Whitening effect testing (lotion on sun-exposed skin of testees). The settings on record: blend ratio 1.0 wt %, applied twice a day for 4 weeks. The format is in vivo, human. As for the experimental part:
66 testees were exposed to summer sunlight for 4 hours (2 hours a day for 2 days) and the skin of an inner lateral part of their upper arm was used as the subject of the test. […] The panel was divided into 11 groups with 6 persons in each group. Testing was conducted using lotion with the following formulas. [table] The water phase and the alcohol phase were prepared separately and then solubilized. The hypochromic effect after the application was evaluated based on the criteria below. ⊚: Very effective or effective on 80% or more of the testees ◯: Very effective or effective on 50% to less than 80% of the testees Δ: Very effective or effective on 30% to less than 50% testees ×: Very effective or effective on less than 30% of the testees Samples were prepared with the blend compositions described in the aforementioned test method, and the drugs listed in Table 2 were used to compare the whitening effect.

SMILES strings stand for the structures.

For `Oc1ccc(O)cc1` [Hydroquinone], the “Effect (hypochromic effect after the application)” value is given as “Δ (Very effective or effective on 30% to less than 50% testees)”.

The record behind these values is US6514538B1, “External preparations for skin whitening” (Shiseido Company, Ltd., priority 1999, dated 2003).
